From ChEMBL document CHEMBL1132960, “Consensus bioactive conformation of cyclic GnRH antagonists defined by NMR and molecular modeling” (J Med Chem, 2000)
Where a SMILES comes first, the peptide text is derived from it. Bridges are numbered along the chain shown (N, C = ends). [ ]: non-standard residue; d: D form. dPhe(4-Cl) = N[C@H](Cc1ccc(Cl)cc1)C(=O)O; d2Nal = N[C@H](Cc1ccc2ccccc2c1)C(=O)O; d3Pal = N[C@H](Cc1cccnc1)C(=O)O; NMeL = CN[C@@H](CC(C)C)C(=O)O; ΔPro = O=C(O)[C@@H]1C=CCN1; Dab = NCC[C@H](N)C(=O)O; Dap = NC[C@H](N)C(=O)O; βAla = NCCC(=O)O

Tests used:
Rattus norvegicus [1] = species: Rattus norvegicus; experiment: Number of rats ovulating over total at a dose of 10 ug/rat (2/20); format: functional
Rattus norvegicus [2] = species: Rattus norvegicus; experiment: Number of rats ovulating over total at a dose of 2.5 ug/rat (2/8); format: functional
[3] = molecular target: T1, Gonadotropin-releasing hormone receptor (Homo sapiens, UniProt P30968); experiment: Binding affinity towards Gonadotropin-releasing hormone receptor
T1 sequence (P30968 whole entry): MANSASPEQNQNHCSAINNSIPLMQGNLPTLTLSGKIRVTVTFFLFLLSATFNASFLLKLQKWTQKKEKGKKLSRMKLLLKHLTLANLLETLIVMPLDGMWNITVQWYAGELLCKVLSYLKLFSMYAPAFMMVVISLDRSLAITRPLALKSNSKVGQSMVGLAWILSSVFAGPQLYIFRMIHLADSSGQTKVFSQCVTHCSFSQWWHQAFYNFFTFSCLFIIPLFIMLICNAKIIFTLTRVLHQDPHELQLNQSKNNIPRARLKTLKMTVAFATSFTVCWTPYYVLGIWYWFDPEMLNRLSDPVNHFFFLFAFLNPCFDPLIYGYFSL

Rattus norvegicus [4] = species: Rattus norvegicus; experiment: Number of rats ovulating over total at a dose of 5 ug/rat (2/8); format: functional
Rattus norvegicus [5] = species: Rattus norvegicus; experiment: Number of rats ovulating over total at a dose of 5 ug/rat (3/20); format: functional
Rattus norvegicus [6] = species: Rattus norvegicus; experiment: Number of rats ovulating over total at a dose of 1000 ug/rat (5/8); format: functional

Compound `CC(=O)N1CC=C[C@H]1C(=O)N[C@H](Cc1ccc(F)cc1)C(=O)N[C@H](Cc1c[nH]c2ccccc12)C(=O)N[C@H]1CC(=O)NC[C@@H](C(N)=O)NC(=O)[C@@H]2CCCN2C(=O)[C@H](CCCN=C(N)N)NC(=O)[C@H](CC(C)C)NC(=O)[C@@H](Cc2ccc3ccccc3c2)NC(=O)[C@H](Cc2ccc(O)cc2)NC1=O` has a No. of rats (Rattus norvegicus [1]) of 2.

With `CC(=O)N[C@H]1CCC(=O)NCC(=O)NCC[C@@H]2NC(=O)[C@H](CC(=O)NC[C@@H](C(N)=O)NC(=O)[C@@H]3CCCN3C(=O)[C@H](CCCN=C(N)N)NC(=O)[C@H](CC(C)C)NC(=O)[C@@H](Cc3ccc4ccccc4c3)NC2=O)NC(=O)[C@@H](Cc2c[nH]c3ccccc23)NC(=O)[C@@H](Cc2ccc(Cl)cc2)NC1=O` the No. of rats (Rattus norvegicus [2]) was 2.

Compound `CC(=O)N[C@H](Cc1ccc2ccccc2c1)C(=O)N[C@H](Cc1ccc(Cl)cc1)C(=O)N[C@H](Cc1cccnc1)C(=O)N[C@H]1CC(=O)NC[C@@H](C(N)=O)NC(=O)[C@@H]2CCCN2C(=O)[C@@H]2CCNC(=O)CNC(=O)CC[C@H](NC1=O)C(=O)N[C@H](CCCN=C(N)N)C(=O)N[C@@H](CC(C)C)C(=O)N2` (Ac-[d2Nal][dPhe(4-Cl)][d3Pal]DE[dR]L[Dab]P[Dap]-NH2; lactam 4-10; linker 5-8 via G) [listing 1 of 2 here] has a Ki [3] of 0.14 nM.

Compound `CC(=O)N[C@H](Cc1ccc2ccccc2c1)C(=O)N[C@H](Cc1ccc(Cl)cc1)C(=O)N[C@H](Cc1cccnc1)C(=O)N[C@H]1CC(=O)NC[C@@H](C(N)=O)NC(=O)[C@@H]2CCCN2C(=O)[C@@H]2CCNC(=O)CNC(=O)CC[C@H](NC1=O)C(=O)N[C@H](CCCN=C(N)N)C(=O)N[C@@H](CC(C)C)C(=O)N2` (Ac-[d2Nal][dPhe(4-Cl)][d3Pal]DE[dR]L[Dab]P[Dap]-NH2; lactam 4-10; linker 5-8 via G) [listing 2 of 2 here] has a No. of rats (Rattus norvegicus [4]) of 2.

Work on `CC(=O)N[C@H](Cc1ccc2ccccc2c1)C(=O)N[C@H](Cc1ccc(Cl)cc1)C(=O)N[C@H](Cc1c[nH]c2ccccc12)C(=O)N[C@H]1CC(=O)NC[C@@H](C(N)=O)NC(=O)[C@@H]2CCCN2C(=O)[C@@H]2CCCCNC(=O)CC[C@H](NC1=O)C(=O)N[C@H](CCCN=C(N)N)C(=O)N[C@@H](CC(C)C)C(=O)N2` (Ac-[d2Nal][dPhe(4-Cl)][dW]DE[dR]LKP[Dap]-NH2; lactam 4-10, 5-8) [listing 1 of 2 here] yielded a Ki [3] of 0.32 nM.

With `CC(=O)N[C@H](Cc1ccc2ccccc2c1)C(=O)N[C@H](Cc1ccc(Cl)cc1)C(=O)N[C@H](Cc1c[nH]c2ccccc12)C(=O)N[C@H]1CC(=O)NC[C@@H](C(N)=O)NC(=O)[C@@H]2CCCN2C(=O)[C@@H]2CCCCNC(=O)CC[C@H](NC1=O)C(=O)N[C@H](CCCN=C(N)N)C(=O)N[C@@H](CC(C)C)C(=O)N2` (Ac-[d2Nal][dPhe(4-Cl)][dW]DE[dR]LKP[Dap]-NH2; lactam 4-10, 5-8) [listing 2 of 2 here] the No. of rats (Rattus norvegicus [5]) was 3.

For `CC(C)C[C@H]1C(=O)N[C@@H](CCCN=C(N)N)C(=O)N2CCC[C@H]2C(=O)NCCC(=O)N2CC=C[C@H]2C(=O)N[C@H](Cc2ccc(Cl)cc2)C(=O)N[C@H](Cc2c[nH]c3ccccc23)C(=O)N[C@@H](CO)C(=O)N[C@@H](Cc2ccc(O)cc2)C(=O)N[C@H](Cc2c[nH]c3ccccc23)C(=O)N1C` (cyclo([NMeL]RP[βAla][ΔPro][dPhe(4-Cl)][dW]SY[dW])), the No. of rats (Rattus norvegicus [6]) was 5.
